Tests used:
Type in all cases: physicochemical
[1] = Lipid nanoparticle size by dynamic light scattering (Malvern Zetasizer Nano ZS); details: LNP: cationic lipid/DSPC/cholesterol/PEG-lipid 50:10:38.5:1.5 with hEPO mRNA
Description: (§1) Briefly, a cationic lipid provided herein, DSPC, cholesterol, and PEG-lipid were solubilized in ethanol at a molar ratio of 50:10:38.5:1.5, and mRNA were diluted in 10 to 50 mM citrate buffer, pH=4. The LNPs were prepared at a total lipid to mRNA weight ratio of approximately 10:1 to 30:1 by mixing the ethanolic lipid solution with the aqueous mRNA solution at a volume ratio of 1:3 using a microfluidic apparatus, total flow rate ranging from 9-30 mL/min. Ethanol were thereby removed and replaced by DPBS using dialysis. Finally, the lipid nanoparticles were filtered through a […] sterile filter.
(§2) Lipid nanoparticle size were determined by dynamic light scattering using a Malvern Zetasizer Nano ZS (Malvern UK) using a 173° backscatter detection mode. The encapsulation efficiency of lipid nanoparticles were determined using a Quant-it Ribogreen RNA quantification assay kit (Thermo Fisher Scientific, UK) according to the manufacturer's instructions.

[2] = Encapsulation efficiency of lipid nanoparticles, Quant-it Ribogreen RNA quantification assay; details: LNP with hEPO mRNA
Description: as §1, §2

[3] = Apparent pKa of LNP formulations, TNS fluorescence assay; details: LNP cationic lipid/DSPC/cholesterol/DMG-PEG 50/10/38.5/1.5 mol %, pH 3 to 9
Description: As reported in literature, the apparent pKa of LNP formulations correlates with the delivery efficiency of LNPs for nucleic acids in vivo. The apparent pKa of each formulation was determined using an assay based on fluorescence of 2-(p-toluidino)-6-napthalene sulfonic acid (TNS). LNP formulations comprising of cationic lipid/DSPC/cholesterol/DMG-PEG (50/10/38.5/1.5 mol %) in PBS were prepared as described above. TNS was prepared as a 300 uM stock solution in distilled water. LNP formulations were diluted to 0.1 mg/ml total lipid in 3 mL of buffered solutions containing 50 mM sodium citrate, 50 mM sodium phosphate, 50 mM sodium borate, and 30 mM sodium chloride where the pH ranged from 3 to 9. An aliquot of the TNS solution was added to give a final concentration of 0.1 mg/ml and following vortex mixing fluorescence intensity was measured at room temperature in a Molecular Devices Spectramax iD3 spectrometer using excitation and mission wavelengths of 325 nm and 435 nm. A sigmoidal best fit analysis was applied to the fluorescence data and the pKa value was measured as the pH giving rise to half-maximal fluorescent intensity.

polydispersity [1]	size (nm) [1] [nm]	Encapsulation Efficiency [2] [%]	Apparant Pka [3]	SMILES
0.42	89.41	97.0	13.20	CCCCCCCCCCCC(=O)OCC1(COC(=O)CCCCCCCCCCC)CCN(C(=O)CCCN2CCCC2)CC1 [Compound 39]
0.066	84.7	92.4	9.27	CCCCCCCCCCCC(=O)OCC1(COC(=O)CCCCCCCCCCC)CCN(C(=O)CCCN2CCCCC2)CC1 [Compound 40]
0.298	78.03	96.1	7.45	CCCCCCCCCCCC(=O)OCC1(COC(=O)CCCCCCCCCCC)CCN(C(=O)CCCN2CCCCCCC2)CC1 [Compound 42]
0.316	94.1	102.1	8.09	CCCCCCCCC(CCCCCC)COC(=O)CCCCCC(=O)OCC1(COC(=O)CCCCCC(=O)OCC(CCCCCC)CCCCCCCC)CCN(C(=O)CCN2CCCC2)CC1 (stereo not shown) [Compound 53]
0.284	83.06	101.1	11.73	CCCCCCCCC(CCCCCC)COC(=O)CCCCCC(=O)OCC1(COC(=O)CCCCCC(=O)OCC(CCCCCC)CCCCCCCC)CCN(C(=O)CCN(C)CCO)CC1 (stereo not shown) [Compound 56]
0.276	74.16	100.4	8.80	CCCCCCCCC(CCCCCC)COC(=O)CCCCCC(=O)OCC1(COC(=O)CCCCCC(=O)OCC(CCCCCC)CCCCCCCC)CCN(C(=O)CCN(CC)CCO)CC1 (stereo not shown) [Compound 57]
0.113	82.74	97.4	7.859	CCCCCCCCCOC(=O)CCC1(CCC(=O)OCCCCCCCCC)CCN(C(=O)CCN(C)C)CC1 [Compound 63]

Continued, compound first:

SMILES	polydispersity [1]	size (nm) [1] [nm]	Encapsulation Efficiency [2] [%]	Apparant Pka [3]
CCCCCCCCCCCC(=O)OCC1(COC(=O)CCCCCCCCCCC)CCN(C(=O)CCCN(C)C)CC1 [Compound 38]	0.104	73.39	93.5	7.85
CCCCCCCCCCCC(=O)OCC1(COC(=O)CCCCCCCCCCC)CCN(C(=O)CCCN2CCCCCC2)CC1 [Compound 41]	0.15	90.15	96.1	~12.82
CCCCCCCCCCCC(=O)OCC1(COC(=O)CCCCCCCCCCC)CCN(C(=O)CCCN2CCOCC2)CC1 [Compound 43]	0.214	89.71	69.9	6.83
CCCCCCCCCCCC(=O)OCC1(COC(=O)CCCCCCCCCCC)CCN(C(=O)CCN(CCCCC)CCCNc2c(N(C)C)c(=O)c2=O)CC1 [Compound 48]	0.133	85.67	98.3	7.17
CCCCCCCCCCCC(=O)OCC1(COC(=O)CCCCCCCCCCC)CCN(C(=O)CCN(CCCCCC)CCCNc2c(N(C)C)c(=O)c2=O)CC1 [Compound 49]	0.291	87.3	95.8	4.76
CCCCC/C=C\C/C=C\CCCCCCCC(=O)OCC1(COC(=O)CCCCCCC/C=C\C/C=C\CCCCC)CCN(C(=O)CCN2CCCC2)CC1 [Compound 50]	0.327	86.44	97.8	10.76
CCCCCCCCC(CCCCCC)COC(=O)CCCCCC(=O)OCC1(COC(=O)CCCCCC(=O)OCC(CCCCCC)CCCCCCCC)CCN(C(=O)CCN(C)C)CC1 (stereo not shown) [Compound 51]	0.424	103.3	101.7	7.46
CCCCCCCCC(CCCCCC)COC(=O)CCCCCC(=O)OCC1(COC(=O)CCCCCC(=O)OCC(CCCCCC)CCCCCCCC)CCN(C(=O)CCCN(C)C)CC1 (stereo not shown) [Compound 52]	0.47	107.3	100.4	6.20
CCCCCCCCC(CCCCCC)COC(=O)CCCCCC(=O)OCC1(COC(=O)CCCCCC(=O)OCC(CCCCCC)CCCCCCCC)CCN(C(=O)CCN2CCCCCC2)CC1 (stereo not shown) [Compound 54]	0.168	84.09	99.7	8.31
CCCCCCCCC(CCCCCC)COC(=O)CCCCCC(=O)OCC1(COC(=O)CCCCCC(=O)OCC(CCCCCC)CCCCCCCC)CCN(C(=O)CCN2CCOCC2)CC1 (stereo not shown) [Compound 55]	0.247	81.29	80.6	7.25
CCCCCCCCC(CCCCCC)COC(=O)CCCCCC(=O)OCC1(COC(=O)CCCCCC(=O)OCC(CCCCCC)CCCCCCCC)CCN(C(=O)CCCN2CCCC2)CC1 (stereo not shown) [Compound 58]	0.356	97.85	102.4	13.72
CCCCCCCCC(CCCCCC)COC(=O)CCCCCC(=O)OCC1(COC(=O)CCCCCC(=O)OCC(CCCCCC)CCCCCCCC)CCN(C(=O)CCCN2CCCCC2)CC1 (stereo not shown) [Compound 59]	0.378	109.8	102.1	11.77
CCCCCCCCC(CCCCCC)COC(=O)CCCCCC(=O)OCC1(COC(=O)CCCCCC(=O)OCC(CCCCCC)CCCCCCCC)CCN(C(=O)CCCN2CCOCC2)CC1 (stereo not shown) [Compound 60]	0.048	90.17	91.7	7.44
CCCCCCCCCCCC(=O)OCC1(COCCCCCCCC(=O)OC(CCCCCCCC)CCCCCCCC)CCN(C(=O)CCN(C)C)CC1 [Compound 61]	0.2	54.56	99.7	7.65
CCCCCCCC(=O)OCC1(COC(=O)CCCCCCC)CCN(CCO)CC1 [Compound 62]	0.122	120.8	94.6	6.972
